Source: patent publication US12599575B2, “Antimicrobial adjuvant containing biphenyl derivative compound as active ingredient, and uses thereof” (KOREA RESEARCH INSTITUTE OF BIOSCIENCE AND BIOTECHNOLOGY, priority 2021, dated 2026)
“Also recorded” adds a separate entry of the source.

Tests used:
[1] = tested on: human body-derived renal cells ACHN; assay: nephrotoxicity, renal cell viability (cell titer glo); assay type: cell-based
Method: First, ACHN renal cells were incubated with 2×10^4 cells/well for 24 hours, and the medium was changed to a medium in which PMB or PA108 was mixed in all wells. After 0, 24, 48, 72, and 96 hours of the treatment with PMB or PA108, cell viability was measured as ratios of the amounts of ATP at each time to 0 hour through cell titer glo to evaluate cytotoxicity.

[2] = tested on: A. baumannii colistin R357; assay: checkerboard assay, MIC and FICI; conditions: for MIC Alone: 18 hours
Method: First, in a LB agar plate, 3-4 colonies were inoculated into a 4-5 ml of a LB broth and incubated overnight at 37° C. and 220 rpm for 16 hours. Thereafter, 5 ml of a 1/10000 dilution of the culture medium was made and incubated to OD=0.08-0.1 at 37° C. and 220 rpm in a 15 ml round culture tube.
(§1) It was determined that when the FICI value was 0.5 or less, the effect was synergistic, when the value was 0.5 to 4.0, the effect was indifferent, and when the value was 4 or more, the effect was antagonistic.

K. pneumoniae SCH530 = assay: checkerboard assay, MIC and FICI; conditions: for MIC Alone: 18 hours
Method: as §1
(§2) First, in each LB agar plate in which bacteria (Klebsiella pneumonia SCH530, SCH740, SCH777, Pseudomonas aeruginosa SMC-U9, SMC-U10, SMC-U11) were grown, 3 to 4 colonies were inoculated into 4 to 5 ml of a LB broth and incubated overnight at 220 rpm at 37° C. for 16 hours. The next day, 5 ml of a culture medium diluted to 1/10000 was incubated to OD=0.08-0.1 in a 15 ml round culture tube at 220 rpm at a temperature of 37° C., and was diluted to 1/20 and dispensed at 196 ul in a 96-well plate. PA108 and PMB were dispensed at concentrations of 0 to 80 μM and 0 to 128 μg/Ml, respectively at 2 ul each and mixed in each well, and incubated at 37° C. for 18 hours to measure the OD value using a multifunctional microplate reader.

K. pneumoniae SCH740 = assay: checkerboard assay, MIC and FICI; conditions: for MIC Alone: 18 hours
Method: as §1, §2

K. pneumoniae SCH777 = assay: checkerboard assay, MIC and FICI; conditions: for MIC Alone: 18 hours
Method: as §1, §2

P. aeruginosa SMC-U9 = assay: checkerboard assay, MIC and FICI; conditions: for MIC Alone: 18 hours
Method: as §1, §2

P. aeruginosa SMC-U10 = assay: checkerboard assay, MIC and FICI; conditions: for MIC Alone: 18 hours
Method: as §1, §2

P. aeruginosa SMC-U11 = assay: checkerboard assay, MIC and FICI; conditions: for MIC Alone: 18 hours
Method: as §1, §2

R357 strains [3] = assay: bacterial viability test (colony forming unit)
Method: First, in a LB agar plate, a single colony was inoculated into a 3 ml of a LB broth and incubated overnight under the conditions of 37° C. and 220 rpm for 16 hours. Thereafter, 1% of the culture medium was diluted in a 250 ml Erlenmeyer flask and then incubated to OD=0.5.

[4] = tested on: Acinetobacter baumannii strains; assay: transcriptome analysis (RNA sequencing, DEG, gene ontology); conditions: 1 hour
Method: First, in a LB agar plate, a single colony was inoculated into a 3 ml of a LB broth and incubated overnight under the conditions of 37° C. and 220 rpm for 16 hours. Thereafter, 1% of the culture medium was diluted in a 250 mL Erlenmeyer flask and then incubated to OD=0.5. The culture medium was dispensed at 5 ml each into three 15 ml round culture tubes, treated with PMB at a concentration of 16 μg/ml, PA108 at a concentration of 5 μm, and PMB at a concentration of 16 μg/ml and PA108 at a concentration of 5 μm, respectively, and incubated at 37° C. and 220 rpm for 1 hour. Thereafter, bacteria were washed three times with PBS, centrifuged at 4° C. and 8,000×g for 10 minutes, and stored at −80° C.
The library for performing RNA sequencing was prepared by extracting total RNA with a TruSeq Stranded Total RNA sample preparation kit including Ribo-Zero H/M/R, and synthesizing 150 bp-sized cDNA. The quality of the synthesized cDNA library was evaluated by Agilent 2100 BioAnalyzer (Agilent, CA, USA), and after amplifying the cluster of a denatured template, paired-end sequencing which sequences both ends of a DNA fragment using Illumina Novaseq 6000 (Illumina, CA, USA) was performed. For transcriptomic data analysis, the read value was filtered, and the filtered read value was mapped to a reference genome using an aligner STAR v.2.4.0b. Thereafter, in order to measure a gene expression amount, gene expression was quantified using a KAPA library quantification kit (Kapa Biosystems, MA, USA) according to the library quantification protocol of the manufacturer.
In order to identify a differential expression gene (DEG), a gene expression level was measured with Cufflinks v2.1.1 using gene annotation database, and gene expression level count data was produced using HTSeq-count v0.6.1p1. Form the produced data, a TCC R package was used to identify a gene having a q value of less than 0.05 as a differential expression gene.
For the genes identified as the differential expression gene (DEG), gene ontology (GO) analysis in which genes were classified according to three categories of biological process, molecular function, and cellular component, and information about the function of genes is provided was performed.

[5] = tested on: Acinetobacter baumannii strains (R357); assay: bacterial morphological change (fluorescence microscope, scanning electron microscope); conditions: 9 hours
Method: First, in a LB agar plate, a single colony was inoculated into 3 ml of a LB broth and incubated overnight at 37° C. and 220 rpm for 16 hours. Thereafter, 1% of the culture medium was diluted in a 250 ml of Erlenmeyer flask and incubated to OD=0.5, treated with PMB and PA108 at concentrations of 16 μg/ml and 5 μM, respectively, and incubated for 9 hours. The cells were centrifuged at 4° C. for 10 minutes at 8,000×g, washed three times, and resuspended in PBS. 3 ml of the cell suspension was fixed and then observed with a scanning electron microscope. A LIVE/DEAD BacLight bacterial viability kit (Cat #. L7007, Invitrogen, Waltham, Massachusetts, USA) was used to add SYTO9 (67 mM, 3 μL) which bound to DNA and RNA of living cells to emit green fluorescence and Propidium iodide (PI) (1.67 mM, 3 μL) which bound to DNA and RNA of dead cells to emit red fluorescence to add each sample at a final volume of 3 ml, and the samples were incubated in a dark room at room temperature for 15 hours and observed with a fluorescence microscope.

R357 strains [6] = assay: mouse sepsis model caused by R357 infection, survival rate; assay type: in vivo; conditions: PMB 100 μg/kg + PA108 60 μg/kg intraperitoneally
Method: Specifically, 5×10^7 of R357 strains were intraperitoneally injected into 6 week old C57BL/6 mouses to prepare a sepsis mouse model caused by R357 infection, and PMB at a dose of 100 μg/kg and PA108 at a dose of 60 μg/kg were intraperitoneally injected alone or in combination to measure the survival rate of the mouse.

[7] = tested on: Acinetobacter baumannii strains; assay: membrane permeability (PI fluorescence); assay type: cell-based; conditions: PMB 16 μg/ml + PA108 5 μM; 30 minutes
Method: Specifically, for sample preparation, a colony culture grown for 16 hours was washed and resuspended in 0.01 M PBS at pH 7.4. Absorbance at 600 nm in a bacteria suspension was standardized to 0.5 in the same buffer solution, and a pigment PI9 (cat. P1304MP, Thermo Fisher Scientific, Waltham, Massachusetts, USA) was added at a final concentration of 1.67 μM. After incubation at 37° C. for 30 minutes, 198 μl of fluorescently labeled bacteria cells were added to a 96-well plate, and 16 μg/ml of PMB and 2 μl of 5 μM PA108 were added. After incubation for 30 minutes again, fluorescence was measured in a fluorescence measurement wavelength range of excitation of 535 nm and emission of 615 nm by a multifunctional microplate reader to measure membrane permeability.

[8] = tested on: Acinetobacter baumannii strains; assay: cytoplasmic membrane potential (DiSC3(5) fluorescence); assay type: cell-based; conditions: PMB and PA108 in combination
Method: The cell membrane potential was resuspended in 5 mM HEPES (pH 7.0, +5 mM of glucose), DiSC3(5) (3,3′-Dipropylthiadicarbocyanine Iodide) (50 μM, Cat. D306, Invitrogen, Carlsbad, California) which is a pigment sensitive to potential was added, incubation was performed for 30 minutes, and then fluorescence was measured by a multifunctional microplate reader to measure membrane potential.

[9] = A. baumannii colistin R357, PA108 + polymyxin B
[10] = in combination with polymyxin B
[11] = PMB 16 μg/ml + PA108 5 μM, gene ontology analysis

polymyxin B [PMB, reference compound]
concentration from which viability of renal cells decreased ([1]; up to 96 hours): ≥ 50 µg/mL | FIC ([2]; A. baumannii colistin R357): 0.031 | MIC Alone ([2]; A. baumannii colistin R357): 54 µg/mL | MIC Combi ([2]; A. baumannii colistin R357, in combination with PA108): 2 µg/mL | minimal inhibitory concentration (MIC) ([2]; R357 strains, polymyxin alone): 64 µg/mL | FIC (K. pneumoniae SCH530): 0.0623 | MIC Alone (K. pneumoniae SCH530): 8 µg/mL | MIC Combi (K. pneumoniae SCH530; in combination with PA108): 0.5 µg/mL | FIC (K. pneumoniae SCH740): 0.00781 | MIC Alone (K. pneumoniae SCH740): 128 µg/mL | MIC Combi (K. pneumoniae SCH740; in combination with PA108): 1 µg/mL | FIC (K. pneumoniae SCH777): 0.00391 | MIC Alone (K. pneumoniae SCH777): 128 µg/mL | MIC Combi (K. pneumoniae SCH777; in combination with PA108): 0.5 µg/mL | FIC (P. aeruginosa SMC-U9): 0.25 | MIC Alone (P. aeruginosa SMC-U9): 16 µg/mL | MIC Combi (P. aeruginosa SMC-U9; in combination with PA108): 4 µg/mL | FIC (P. aeruginosa SMC-U10): 0.125 | MIC Alone (P. aeruginosa SMC-U10): 16 µg/mL | MIC Combi (P. aeruginosa SMC-U10; in combination with PA108): 2 µg/mL | FIC (P. aeruginosa SMC-U11): 0.0625 | MIC Alone (P. aeruginosa SMC-U11): 32 µg/mL | MIC Combi (P. aeruginosa SMC-U11; in combination with PA108): 2 µg/mL | effect of killing (CFU), PMB single treatment (R357 strains [3]; PMB 16 μg/mL): did not show the effect of killing | gene change compared with control group, PMB single treatment ([4]; PMB 16 μg/ml): significant gene change was observed | cell death by LIVE/DEAD fluorescence, PMB single treatment ([5]; PMB 16 μg/ml): the cells did not die | cell morphology by scanning electron microscope, PMB single treatment ([5]; PMB 16 μg/ml): intact form in which the surface of cells was not damaged

Cc1cc([N+](=O)[O-])cc(-c2ccc(Cl)cc2)c1O [PA108]
nephrotoxicity at working concentration ([1]; 5 μM): nephrotoxicity was not shown at all | renal cell viability ([1]; concentration higher than 5 μM): ≥ 80% | survival time, simultaneous treatment (R357 strains [6]; C57BL/6 mouse, R357 i.p.): ≥ 168 h | R357 strains in organs at autopsy, simultaneous treatment (R357 strains [6]): R357 strains were not detected in organs | pathological symptoms, simultaneous treatment (R357 strains [6]; until 168 hours): without showing any pathological symptoms | overall membrane permeability [7]: did not affect the overall membrane permeability | bacterial cytoplasmic membrane potential [8]: changed the bacterial cytoplasmic membrane potential | FIC ([2]; A. baumannii colistin R357): 0.03125 | MIC Alone ([2]; A. baumannii colistin R357): 160 µM | FICI [2, 9]: 0.06225 | Interpretation [2, 9]: synergistic effect; also recorded: Synergy | MIC Combi ([2]; A. baumannii colistin R357, in combination with PB): 5 µM | FIC (K. pneumoniae SCH530): 0.03125 | MIC Alone (K. pneumoniae SCH530): 160 µM | Interpretation (K. pneumoniae SCH530; PA108 + polymyxin B): Synergy | MIC Combi (K. pneumoniae SCH530; [10]): 5 µM | FIC (K. pneumoniae SCH740): 0.03125 | MIC Alone (K. pneumoniae SCH740): 160 µM | Interpretation (K. pneumoniae SCH740; PA108 + polymyxin B): Synergy | MIC Combi (K. pneumoniae SCH740; [10]): 5 µM | FIC (K. pneumoniae SCH777): 0.03125 | MIC Alone (K. pneumoniae SCH777): 160 µM | Interpretation (K. pneumoniae SCH777; PA108 + polymyxin B): Synergy | MIC Combi (K. pneumoniae SCH777; [10]): 5 µM | FIC (P. aeruginosa SMC-U9): 0.0625 | MIC Alone (P. aeruginosa SMC-U9): 160 µM | Interpretation (P. aeruginosa SMC-U9; PA108 + polymyxin B): Synergy | MIC Combi (P. aeruginosa SMC-U9; [10]): 10 µM | FIC (P. aeruginosa SMC-U10): 0.0625 | MIC Alone (P. aeruginosa SMC-U10): 160 µM | Interpretation (P. aeruginosa SMC-U10; PA108 + polymyxin B): Synergy | MIC Combi (P. aeruginosa SMC-U10; [10]): 10 µM | FIC (P. aeruginosa SMC-U11): 0.0625 | MIC Alone (P. aeruginosa SMC-U11): 160 µM | Interpretation (P. aeruginosa SMC-U11; PA108 + polymyxin B): Synergy | MIC Combi (P. aeruginosa SMC-U11; [10]): 10 µM | effect of killing (CFU), PA108 single treatment (R357 strains [3]; PA108 5 μM): did not show the effect of killing | cell death (CFU), simultaneous treatment (R357 strains [3]; PMB 16 μg/mL + PA108 5 μM): cell death was derived | bacterial killing effect (R357 strains [3]; PMB 16 μg/mL + PA108 5 μM, final): 100% | gene change compared with control group, PA108 single treatment ([4]; PA108 5 μM): significant gene change was observed | gene change compared with control group, simultaneous treatment ([4]; PMB 16 μg/ml + PA108 5 μM): significant gene change was observed | expression of genes involved in transport of substances through a cell membrane, ATPase-coupled sulfate transmembrane transporter activity [4, 11]: significantly increased | expression of genes involved in zinc ion binding, identical protein binding, ferric ion binding and peroxidase activity [4, 11]: significantly decreased | cell death by LIVE/DEAD fluorescence, PA108 single treatment ([5]; PA108 5 μM): the cells did not die | cell morphology by scanning electron microscope, PA108 single treatment ([5]; PA108 5 μM): intact form in which the surface of cells was not damaged | cell death by LIVE/DEAD fluorescence, simultaneous treatment ([5]; PMB 16 μg/ml + PA108 5 μM): cell death was derived | cell morphology by scanning electron microscope, simultaneous treatment ([5]; PMB 16 μg/ml + PA108 5 μM): cells shrunk and an intracellular substance was leaked
